From patent publication US6313090A, “Methods for treating parasitic infection using thiopeptides” (The United States of America as represented by the …, priority 2000, dated 2001)

Key:
[1] = Precipitation seen in culture medium of the growth assay; assay type: physicochemical; conditions: highest concentrations (final 0.2mM) in culture
Method: (§1) Assay of Growth inhibition. Thiostrepton (1525 u/mg; Calbiochem) and anisomycin (Sigma) were dissolved at 100 mM in DMSO (Pierce). P. falciparum (strain 3D7) (44) was maintained in culture with human erythrocytes (5% hematocrit) in RPMI-1640 (Life Technologies) supplemented with HEPES and sodium bicarbonate and human sera (10%) under standard conditions (18,19). The growth inhibition assay was conducted as described (20). Briefly, the parasitemia was adjusted to 0.1% parasitemia, 2.5% hematocrit and 200 μl aliquots placed in wells of a microtitre dish. Serial dilutions of drugs were made in RPMI. Thiostrepton was diluted to 10 mM in DMSO before the serial dilutions in RPMI. Aliquots (20 μl) were added in triplicate to the cultures in the microtitre plate, mixing well. At the highest concentrations (final 0.2mM), thiostrepton precipitates. After incubation for 48 hours under standard conditions, [2,8-^3 H]-hypoxanthine Moravek Biochemicals, 12.5 Ci/mmol) in RPMI (20 μl, 0.05 mCi/ml) was added to each well. After incubation for a further 24 hours, the cultures were lysed and incorporated radioactivity was measured with an automated counter.

[2] = test system: P. falciparum total protein synthesis; assay: Assay of inhibition of protein synthesis, [3H]leucine incorporation; assay type: cell-based
Method: Assay of Inhibition of Protein Synthesis. Assay for inhibition of protein synthesis was similar to above except the culture and drug dilutions were in RPMI-1640 without leucine (Select-Amine, Life Technologies) and the sera was extensively dialyzed as described (21). Also, the cultures were adjusted to 1% parasitemia prior to the experiment. Microtitre plates were set up with drug dilutions as described above except cultures were incubated with drug for only 4 hours. [3,4,5-^3 H]-Leucine (Moravek Biochemicals, 122 Ci/mmol, 0.5 mCi/ml, 100 μCi) was diluted to 4 ml in RPMI without leucine. The radiolabeled leucine (20 μl, […]) was added to each well and the plates were further incubated for four hours. The microtitre plates were processed as above to quantitate the incorporated radiolabel.
Assay of inhibition. The effect of thiostrepton on growth and protein synthesis of P. falciparum was compared to anisomycin, since the effect of both of these drugs is on protein synthesis. To assay the effect of thiostrepton and anisomycin on the growth of P. faciparum, inhibition of the uptake and incorporation of [^3 H]hypoxanthine was quantitated at serial dilutions of the drugs on an in vitro culture of P. falciparum. […] Inhibition of the incorporation of [^3 H]leucine was also tested at the same dilutions of the drugs. […]

C. parvum = assay: In vivo testing, SCID mice with acute C. parvum infection; design: species or system Cryptospordium parvum
Method: SCID mice (Taconic Farms, Germantown, N.Y.), preconditioned with monoclonal antibodies to interferon as described (41), were given an acute infection of C. parvum (10^7 oocysts given orally). A total of five mice in two groups were used. One group received 500 mg/kg/day (in two doses of 250 mg/kg) of thiostrepton six days post-infection and the other group received a placebo. Treatment lasted ten days and oocyst shedding was measured by counting the number of oocysts in 30 fields under high power microscopy of acid-fast stained fecal smears and calculating the mean for each group as described (41). […] Mucosal scores describe the extent of mucosal infection detected in formalin-fixedsections of tissue samples from various gut sites (pyloric region of stomach, liver, gallbladder, mid-small intestine, terminal ileum, cecum and colon) taken during necropsy. Scoring was as follows: 0 (no infection) to 5 (maximal infection) and was expressed as the combined score of the number of gut sites examined.

[3] = test system: P. falciparum (strain 3D7); assay: Assay of growth inhibition, [3H]hypoxanthine incorporation; assay type: cell-based
Method: as §1
Assay of inhibition. The effect of thiostrepton on growth and protein synthesis of P. falciparum was compared to anisomycin, since the effect of both of these drugs is on protein synthesis. To assay the effect of thiostrepton and anisomycin on the growth of P. faciparum, inhibition of the uptake and incorporation of [^3 H]hypoxanthine was quantitated at serial dilutions of the drugs on an in vitro culture of P. falciparum. […] Inhibition of the incorporation of [^3 H]leucine was also tested at the same dilutions of the drugs. For anisomycin, total protein synthesis was inhibited 50% at the IC50 (0.511 μM) for inhibition of growth, with the concentration-response almost superimposable on that of protein synthesis. […] This would occur if organelle protein synthesis was the target of inhibition (29,30).

C=C(NC(=O)C(=C)NC(=O)c1csc(C2=N[C@@H]3c4csc(n4)[C@H]4NC(=O)c5csc(n5)[C@H]([C@](C)(O)[C@@H](C)O)NC(=O)[C@H]5CSC(=N5)/C(=C/C)NC(=O)[C@H]([C@@H](C)O)NC(=O)c5csc(n5)[C@]3(CC2)NC(=O)[C@H](C)NC(=O)C(=C)NC(=O)[C@H](C)NC(=O)[C@H]([C@@H](C)CC)N[C@@H]2C=Cc3c([C@H](C)O)cc(nc3[C@H]2O)C(=O)O[C@@H]4C)n1)C(N)=O [Thiostrepton, thiostrepton]
precipitation [1]: precipitates | inhibition of total protein synthesis ([2]; at the IC50 for growth): only a negligible amount of inhibition | concentration required for almost complete inhibition of total protein synthesis ([2]; relative to the IC50 for growth): More than ten-fold higher concentrations than the IC50 | Mucosal score (C. parvum; 2 × 250 mg/kg, combined score of gut sites, 0 (no infection) to 5 (maximal infection) per site): 9.8 | oocyst shedding compared to placebo (C. parvum; SCID mice, 500 mg/kg/day (two doses of 250 mg/kg), ten days, FIG. 1): significantly reduced oocyst shedding | Oocyst shedding, % Inhib (C. parvum; last day of 10 day treatment, 2 × 250 mg/kg): 78.9% | Oocyst shedding, Mean (C. parvum; last day of 10 day treatment, 2 × 250 mg/kg, oocysts in 30 fields of fecal smears): 11.2 | IC50 ([3]; Plasmodium falciparum, 3D7, in vitro culture, [3H]hypoxanthine uptake and incorporation): 1.8 µM | IC99 (near) ([3]; concentration used, near the IC99 value, this study): ~8 µM
